Measurements from paper PMC10777911, “A Potent PDK4 Inhibitor for Treatment of Heart Failure with Reduced Ejection Fraction” (Cells, 2023).
In brackets after ≈: the same amount, converted by molar mass.

What was measured:
PDK4 = system: PDK4; set-up: method as in PMID 24865588; details: previous study; read-out: IC50 of PDK4 inhibition; cited from earlier work
[1] = system: TAC mice (heart failure with reduced EF); assay: Transverse aortic constriction (TAC) heart failure model, echocardiography; format: in vivo, mouse (C57BL/6J); details: 2.8 mg/kg i.p. once daily for 1 week, compared to DCA
Description: C57BL/6J mice were purchased from Japan SLC, Inc. (Hamamatsu, Japan) and Takasugi Experimental Animals Supply Co., Ltd. (Kasukabe, Japan), and were kept under a 12 h light–dark schedule. All animal handling procedures in this study complied with the Jichi Medical University Guide for Laboratory Animals and the ARRIVE guidelines. The Institutional Animal Care and Concern Committee at Jichi Medical University approved all experimental protocols. This study used 8-week-old male mice.
Mice were intubated prior to surgery and were maintained under assisted ventilation on a heating pad throughout the procedure. Under a microscope, a midline incision was made on the skin from the neckline to the mid-chest level. A partial thoracotomy was made through the second rib, and the sternum was retracted to aid visualization of the aorta. After periaortic tissue was removed, a 27-G blunt needle was placed in parallel along the transverse aorta, and the suture was tied over the needle between the innominate artery and the left common carotid. Then, the rib cage was closed, followed by closure of the skin. […] Mice were kept in a heating unit until they recovered completely from anesthesia.
At weeks 0, 4, and 5 after TAC induction, mice were anesthetized with 1.5% isoflurane and secured on an animal handling and physiological monitoring system in the supine position. Images were captured with a 30 MHz probe attached to a Vevo 2100 (VisualSonics, Toronto, ON, Canada). Heart rate was maintained at 400 to 500 bpm, and the temperature of the system was kept at 37 °C while echocardiographic images were captured. The ejection fraction was calculated using the Vevo2100 system based on the Teichholz method.
Four weeks after the TAC surgery, mice with an EF less than 55 were subjected to injection. Then, 2.8 mg/kg of compound 8 or DCA in 5% DMSO in saline or 5% DMSO in saline was injected peritoneally every day for 7 days.
(§1) With five synthesized Vitamin K3 derivatives, their in vitro PDK4 inhibitory activity and cytotoxicity were evaluated. In vitro activities were tested using fluorescently labeled PDH by measuring phosphorylated and unphosphorylated PDH of the derivatives using a CCD camera. For cytotoxicity, IC50 values were calculated by adding the derivatives to the human fibroblast culture medium and monitoring growth inhibition. Then, we evaluated the efficacy of novel PDK4 inhibitor candidates in the treatment of heart failure. The transverse aorta of wild-type mice was constricted to induce a pressure overload in the left ventricle, and the ejection fraction (EF) was postoperatively measured at 4 weeks. Subsequently, 2.8 mg/kg of each derivative was intraperitoneally administered to mice once daily for 1 week to evaluate improvement in EF values.

human fibroblast cells = assay: Cytotoxicity assay against human fibroblast cells (growth inhibition); format: cell-based; details: human fibroblasts, read-out: Toxicity (IC50), half-maximal inhibitory concentration to inhibit fibroblast growth
Description: Wild-type fibroblasts obtained from a volunteer expressing [F352F + V368V] (FV–FV alleles), purchased from RIKEN Cell Bank (Tsukuba, Japan), were used, and the cytotoxicity assay was carried out as described in the previous paper.
as §1

[2] = target: T1, Full-length human PDK4 (GST-fusion) (Homo sapiens, UniProt Q16654); assay: Off-chip mobility shift assay (MSA) for PDK4 inhibition; format: biochemical; details: at 10 µg/mL of each inhibitor; for inhibition at 10 µg/mL: read-out: PDK4 Inhibitory Activity (%)
T1 construct: GST (Glutathione S-transferase) (N); made in house; host or cells: E. coli
Description: Full-length human PDK4 [amino acids 1-411 of accession number NP_002603.1] was expressed as an N-terminal Glutathione S-transferase (GST)-fusion protein (73 kDa) using an E. coli expression system. GST-PDK4 was purified using glutathione affinity chromatography.
Derivatives were dissolved in dimethyl sulfoxide (DMSO) and further diluted in DMSO to prepare a solution with a 100-fold higher concentration than the test sample solution. This solution was further diluted 25-fold in assay buffer (20 mM 4-(2-hydroxyethyl)-1-piperazineethanesulfonic acid (HEPES), 0.01% Triton X-100, 2 mM dithiothreitol (DTT), pH 7.5) to make a test sample solution. The positive control substance solution was prepared the same way.
(1) 5µL of test sample solution, 5 µL of substrate/ATP/metal solution in assay buffer (20 mM HEPES, 0.01% Triton X-100, 2 mM DTT, pH 7.5), and 10 µL of kinase solution in assay buffer prepared in assay buffer were mixed in the wells of a 384-well polypropylene plate and allowed to react for 5 h at room temperature. (2) The reaction was stopped by adding 70 µL of Termination Buffer (QuickScout Screening Assist MSA; Carna Biosciences). (3) Substrate peptides and phosphorylated peptides in the reaction solution were separated and quantified using the LabChip system (Perkin Elmer, Shelton, CT, USA). (4) The product ratio (P/(P+S)) was calculated from the substrate peptide peak height (S) and the phosphorylated peptide peak height (P) of the kinase reaction.
The average signal in control wells containing all reaction components was considered to be 0% inhibition. The average signal in background wells (without enzyme) was considered as 100% inhibition, and the % inhibition was calculated from the average signal in each test sample well.

T1 sequence (Q16654 whole entry, the tested form may be a part): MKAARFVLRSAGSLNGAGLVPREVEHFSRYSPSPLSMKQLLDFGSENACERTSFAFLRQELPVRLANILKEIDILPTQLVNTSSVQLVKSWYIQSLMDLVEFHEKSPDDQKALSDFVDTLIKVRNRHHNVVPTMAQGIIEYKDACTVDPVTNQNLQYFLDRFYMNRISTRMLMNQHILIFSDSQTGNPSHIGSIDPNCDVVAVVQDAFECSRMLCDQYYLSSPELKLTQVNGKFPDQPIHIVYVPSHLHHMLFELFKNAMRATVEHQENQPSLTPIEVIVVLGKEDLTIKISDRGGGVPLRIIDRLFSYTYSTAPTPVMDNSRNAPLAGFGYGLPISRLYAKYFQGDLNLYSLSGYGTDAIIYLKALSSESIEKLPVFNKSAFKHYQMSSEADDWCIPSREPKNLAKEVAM

Row | SMILES | melting point [°C] | inhibition at 10 µg/mL [2] [%] | PDK4 Inhibitory Activity (%) [2] [%] | IC50 (PDK4) [µM] | Change in EF (EF5/EF4) after a week of daily injection [1] | IC50 (human fibroblast cells) [µg/mL]
1 | O=C(O)C(Cl)Cl [DCA, dichloroacetic acid] | – | – | – | 57.8 | – | –
2 | COC(=O)c1ccc2c(c1)C(=O)C=C(C)C2=O [Compound 11] | – | 65.4 | – | – | improve | 7 (≈ 30.4 µM)
3 | COC(=O)c1ccc2c(c1)C(=O)C(C)=CC2=O [Compound 5] | – | 34.6 | – | – | improve | 8 (≈ 34.7 µM)

Now from value to compound, other results behind:

Row | melting point [°C] | inhibition at 10 µg/mL [2] [%] | PDK4 Inhibitory Activity (%) [2] [%] | SMILES | IC50 (PDK4) [µM] | Change in EF (EF5/EF4) after a week of daily injection [1] | IC50 (human fibroblast cells) [µg/mL]
4 | 166.6 to 166.8 | 63.2 | – | CC1=CC(=O)c2cc(C(=O)N[C@@H](CO)C(=O)O)ccc2C1=O [Compound 13b] | – | improve | > 99
5 | – | 66 | 65.9 | CC1=CC(=O)c2ccccc2C1=O [Vitamin K3, reference compound] | – | – | 18 (≈ 105 µM)
6 | 163 to 163.2 | 66.8 | – | CC1=CC(=O)c2cc(C(=O)NCC(=O)O)ccc2C1=O [Compound 13a] | – | improve | > 110
